# Data as given in patent publication US11420969B2 (Exonate Limited, priority 2017, dated 2022).
# Tests used:
# CYP1A2 = molecular target: T1, CYP1A2 (Homo sapiens, UniProt P05177); assay: CYP inhibition assay, human liver microsomes, substrate tacrine; format: in vitro ADME; settings: human liver microsomes, 10 min incubation, LC-MS/MS; read-out: CYP Inhibition Activity (IC50/nM) CYP1A2
# T1 construct: from tissue; host or cells: human liver microsomes
# T1 sequence (P05177 1-516): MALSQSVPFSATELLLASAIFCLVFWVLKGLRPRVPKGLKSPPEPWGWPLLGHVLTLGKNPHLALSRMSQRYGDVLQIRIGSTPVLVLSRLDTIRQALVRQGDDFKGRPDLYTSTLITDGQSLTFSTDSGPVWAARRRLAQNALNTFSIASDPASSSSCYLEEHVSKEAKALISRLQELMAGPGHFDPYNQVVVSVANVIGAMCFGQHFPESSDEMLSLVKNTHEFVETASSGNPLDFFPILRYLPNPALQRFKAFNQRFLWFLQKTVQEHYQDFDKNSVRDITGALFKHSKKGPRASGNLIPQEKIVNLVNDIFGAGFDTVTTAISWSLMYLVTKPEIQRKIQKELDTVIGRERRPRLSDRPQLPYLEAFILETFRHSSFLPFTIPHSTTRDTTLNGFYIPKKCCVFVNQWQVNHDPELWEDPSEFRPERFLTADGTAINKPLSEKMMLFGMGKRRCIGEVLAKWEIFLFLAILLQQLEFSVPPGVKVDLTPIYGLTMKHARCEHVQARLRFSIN
# Method in brief: (§1)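 Test compound or positive inhibitor was combined with a pooled substrate mix and pre-incubated 20 min at 37 °C; reactions were started with pre-warmed NADPH and run 10 min at 37 °C. Cold acetonitrile stopped them, and supernatants were analysed by LC-MS/MS to derive % inhibition and IC50.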
# CYP2D6 = molecular target: T2, CYP2D6 (Homo sapiens, UniProt P10635); assay: biochemical; format: in vitro ADME
# T2 construct: from tissue; host or cells: human liver microsomes
# Method in brief: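 Human liver microsomes (0.253 mg/mL working stock) pre-incubated with compound and substrate pool at 37° C for 20 min. Reaction started with NADPH and run 10 min at 37° C, stopped with cold ACN. Metabolite analysed by LC-MS/MS; % inhibition and IC50 calculated versus inhibitor-free control.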
# CYP3A4 = molecular target: T3, CYP3A4 (Homo sapiens, UniProt P08684); assay: CYP inhibition assay, human liver microsomes, substrate midazolam; format: in vitro ADME; settings: human liver microsomes, 10 min incubation, LC-MS/MS; read-out: CYP Inhibition Activity (IC50/nM) CYP3A4
# T3 construct: from tissue; host or cells: human liver microsomes
# Method in brief: as §1
# SRPK1 = SRPK1 (Homo sapiens, UniProt Q96SB4); assay: In vitro SRPK1 assay (Kinase-Glo); format: biochemical
# CYP2C9 = molecular target: T4, CYP2C9 (Homo sapiens, UniProt P11712); assay: CYP inhibition assay, human liver microsomes, substrate diclofenac; format: in vitro ADME; settings: human liver microsomes, 10 min incubation, LC-MS/MS; read-out: CYP Inhibition Activity (IC50/nM) CYP2C9
# T4 construct: from tissue; host or cells: human liver microsomes
# Method in brief: as §1
# CYP2C19 = molecular target: T5, CYP2C19 (Homo sapiens, UniProt P33261); assay: CYP inhibition assay, human liver microsomes, substrate S-mephenytoin; format: in vitro ADME; settings: human liver microsomes, 10 min incubation, LC-MS/MS; read-out: CYP Inhibition Activity (IC50/nM) CYP2C19
# T5 construct: from tissue; host or cells: human liver microsomes
# Method in brief: as §1
# T3 sequence (P08684 whole entry): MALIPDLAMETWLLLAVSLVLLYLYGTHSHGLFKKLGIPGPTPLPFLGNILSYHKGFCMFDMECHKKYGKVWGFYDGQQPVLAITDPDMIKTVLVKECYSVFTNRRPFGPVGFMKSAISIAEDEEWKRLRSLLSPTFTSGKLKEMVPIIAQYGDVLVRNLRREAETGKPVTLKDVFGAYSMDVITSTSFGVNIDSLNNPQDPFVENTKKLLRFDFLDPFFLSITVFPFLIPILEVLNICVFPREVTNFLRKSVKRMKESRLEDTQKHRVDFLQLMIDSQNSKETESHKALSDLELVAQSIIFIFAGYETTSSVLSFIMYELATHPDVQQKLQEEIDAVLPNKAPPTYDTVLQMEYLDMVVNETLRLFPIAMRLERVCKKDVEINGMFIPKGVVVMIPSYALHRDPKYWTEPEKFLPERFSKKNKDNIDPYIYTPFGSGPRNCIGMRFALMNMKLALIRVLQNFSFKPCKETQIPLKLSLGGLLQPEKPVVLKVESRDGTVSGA
# T5 sequence (P33261 whole entry): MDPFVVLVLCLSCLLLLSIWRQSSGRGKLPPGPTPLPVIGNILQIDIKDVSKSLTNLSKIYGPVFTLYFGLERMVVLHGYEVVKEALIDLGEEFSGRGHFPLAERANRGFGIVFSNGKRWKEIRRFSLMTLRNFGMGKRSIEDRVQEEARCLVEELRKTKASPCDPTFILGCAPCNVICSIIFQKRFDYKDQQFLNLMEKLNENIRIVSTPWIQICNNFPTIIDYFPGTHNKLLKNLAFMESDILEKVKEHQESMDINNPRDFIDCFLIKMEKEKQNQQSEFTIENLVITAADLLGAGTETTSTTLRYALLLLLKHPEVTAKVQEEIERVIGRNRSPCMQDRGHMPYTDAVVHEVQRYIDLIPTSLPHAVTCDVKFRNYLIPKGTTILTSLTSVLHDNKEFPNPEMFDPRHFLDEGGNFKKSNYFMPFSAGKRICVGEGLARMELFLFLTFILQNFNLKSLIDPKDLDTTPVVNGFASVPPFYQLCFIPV
# T2 sequence (P10635 whole entry): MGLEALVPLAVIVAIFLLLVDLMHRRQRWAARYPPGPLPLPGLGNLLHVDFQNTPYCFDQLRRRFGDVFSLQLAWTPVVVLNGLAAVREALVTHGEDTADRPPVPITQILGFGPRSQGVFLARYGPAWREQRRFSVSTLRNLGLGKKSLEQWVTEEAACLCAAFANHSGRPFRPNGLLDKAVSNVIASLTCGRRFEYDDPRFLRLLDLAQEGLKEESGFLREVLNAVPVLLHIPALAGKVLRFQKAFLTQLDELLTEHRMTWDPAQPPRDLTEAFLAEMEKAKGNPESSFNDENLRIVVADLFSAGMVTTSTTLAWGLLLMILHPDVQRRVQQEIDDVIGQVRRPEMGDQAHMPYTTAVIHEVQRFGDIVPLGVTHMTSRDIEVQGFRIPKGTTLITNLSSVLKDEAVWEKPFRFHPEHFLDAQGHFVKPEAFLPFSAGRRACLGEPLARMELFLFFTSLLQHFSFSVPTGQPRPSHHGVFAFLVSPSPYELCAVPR
# T4 sequence (P11712 whole entry): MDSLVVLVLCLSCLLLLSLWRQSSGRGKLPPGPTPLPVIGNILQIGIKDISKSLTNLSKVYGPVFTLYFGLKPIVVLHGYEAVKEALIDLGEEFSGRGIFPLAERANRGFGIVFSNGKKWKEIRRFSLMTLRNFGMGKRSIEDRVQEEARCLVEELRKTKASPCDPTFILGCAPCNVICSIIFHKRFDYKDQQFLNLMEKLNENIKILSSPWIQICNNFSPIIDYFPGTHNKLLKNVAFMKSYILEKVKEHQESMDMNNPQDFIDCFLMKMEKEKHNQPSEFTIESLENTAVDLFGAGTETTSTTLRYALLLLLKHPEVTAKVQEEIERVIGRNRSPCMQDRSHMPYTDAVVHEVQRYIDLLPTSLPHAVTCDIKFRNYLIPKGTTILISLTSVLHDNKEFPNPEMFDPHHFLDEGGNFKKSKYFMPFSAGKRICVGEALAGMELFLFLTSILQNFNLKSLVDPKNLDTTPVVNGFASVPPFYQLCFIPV
# SRPK1, sequence (Q96SB4 whole entry, species assumed): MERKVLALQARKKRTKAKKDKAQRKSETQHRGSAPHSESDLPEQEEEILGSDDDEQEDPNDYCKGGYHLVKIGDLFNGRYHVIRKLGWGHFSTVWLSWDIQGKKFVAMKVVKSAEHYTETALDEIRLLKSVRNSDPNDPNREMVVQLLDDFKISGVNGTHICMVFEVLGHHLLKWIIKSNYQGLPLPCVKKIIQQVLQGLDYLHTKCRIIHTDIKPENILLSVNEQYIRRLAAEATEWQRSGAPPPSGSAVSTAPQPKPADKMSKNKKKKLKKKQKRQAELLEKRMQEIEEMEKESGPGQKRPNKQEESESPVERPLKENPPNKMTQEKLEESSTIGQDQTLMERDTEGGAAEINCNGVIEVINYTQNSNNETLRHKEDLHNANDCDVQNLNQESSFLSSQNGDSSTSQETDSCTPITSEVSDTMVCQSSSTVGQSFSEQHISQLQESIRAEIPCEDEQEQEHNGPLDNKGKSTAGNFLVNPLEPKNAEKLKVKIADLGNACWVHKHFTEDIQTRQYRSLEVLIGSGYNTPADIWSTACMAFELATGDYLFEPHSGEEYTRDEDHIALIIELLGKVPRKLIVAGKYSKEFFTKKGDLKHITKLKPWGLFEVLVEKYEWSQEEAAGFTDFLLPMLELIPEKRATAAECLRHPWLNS
Structure (SMILES),IC50 (CYP1A2) [nM],IC50 (CYP2D6) [µM],IC50 (CYP3A4) [nM],IC50 (SRPK1) [nM],IC50 (CYP2C9) [nM],IC50 (CYP2C19) [nM]
"CC1(C)CCN(c2ccc(C(F)(F)F)cc2NC(=O)c2ccc(C3CCOCC3)o2)CC1 [Example 29, N-(2-(4,4-dimethylpiperidin-1-yl)-5-(trifluoromethyl)phenyl)-5-(tetrahydro-2H-pyran-4-yl)furan-2-carboxamide]",> 30000,> 30,> 30000,6,> 30000,> 30000
"O=C(Nc1cc(C(F)(F)F)ccc1N1CCC(O)CC1)c1ccc(-c2ccncc2)o1 [Example 32, N-(2-(4-hydroxypiperidin-1-yl)-5-(trifluoromethyl)-phenyl)-5-(pyridin-4-yl)furan-2-carboxamide]",2900,2.1,4200,0.8,1500,1100
"O=C(Nc1cc(C(F)(F)F)ccc1N1CCC(O)CC1)c1ccc(C2CCOCC2)o1 [Example 33, N-(2-(4-hydroxypiperidin-1-yl)-5-(trifluoromethyl)-phenyl)-5-(tetrahydro-2H-pyran-4-yl)furan-2-carboxamide]",10000,15.2,> 30000,0.9,7600,8100
"CC1CCN(c2ccc(C(F)(F)F)cc2NC(=O)c2ccc(-c3ccncc3)o2)CC1 [Example 34, N-(2-(4-methylpiperidin-1-yl)-5-(trifluoromethyl)-phenyl)-5-(pyridin-4-yl)furan-2-carboxamide]",4000,5.5,7300,422,5600,4000
"CC1CCN(c2ccc(C(F)(F)F)cc2NC(=O)c2ccc(C3CCOCC3)o2)CC1 [Example 35, N-(2-(4-methylpiperidin-1-yl)-5-(trifluoromethyl)-phenyl)-5-(tetrahydro-2H-pyran-4-yl)furan-2-carboxamide]",4700,> 30,> 30000,56.1,> 30000,27800
"Cc1ccc(N2CCC(O)CC2)c(NC(=O)c2ccc(C3CCOCC3)o2)c1 [Example 36, N-(2-(4-hydroxypiperidin-1-yl)-5-methylphenyl)-5-(tetrahydro-2H-pyran-4-yl)furan-2-carboxamide]",6590,21.5,> 30000,3.7,4940,7500
"C[C@@]1(O)CCN(c2ccc(C(F)(F)F)cc2NC(=O)c2ccc(C3CCOCC3)o2)C1 [Example 50, (R)-N-(2-(3-hydroxy-3-methylpyrrolidin-1-yl)-5-(trifluoromethyl)phenyl)-5-(tetrahydro-2H-pyran-4-yl)furan-2-carboxamide]",5300,> 30,> 30000,28.8,9000,24500
"C[C@]1(O)CCN(c2ccc(C(F)(F)F)cc2NC(=O)c2ccc(C3CCOCC3)o2)C1 [Example 51, (S)-N-(2-(3-hydroxy-3-methylpyrrolidin-1-yl)-5-(trifluoromethyl)phenyl)-5-(tetrahydro-2H-pyran-4-yl)furan-2-carboxamide]",> 30000,> 30,> 30000,96,> 30000,20100
"C[C@@]1(O)CCN(c2ccc(C(F)(F)F)cc2NC(=O)c2ccc(-c3ccncc3)o2)C1 [Example 52, (R)-N-(2-(3-hydroxy-3-methylpyrrolidin-1-yl)-5-(trifluoromethyl)phenyl)-5-(pyridin-4-yl)furan-2-carboxamide]",4360,0.15,1190,216,200,540
"C[C@]1(O)CCN(c2ccc(C(F)(F)F)cc2NC(=O)c2ccc(-c3ccncc3)o2)C1 [Example 53, (S)-N-(2-(3-hydroxy-3-methylpyrrolidin-1-yl)-5-(trifluoromethyl)phenyl)-5-(pyridin-4-yl)furan-2-carboxamide]",2810,0.01,1330,169,450,1190
"O=C(Nc1cc(C2CC2)ccc1N1CCC(O)CC1)c1ccc(C2CCOCC2)o1 [Example 61, N-(5-cyclopropyl-2-(4-hydroxypiperidin-1-yl)phenyl)-5-(tetrahydro-2H-pyran-4-yl)furan-2-carboxamide]",> 30000,> 30,> 30000,1.2,7600,10600
"O=C(Nc1cc(Cl)ccc1N1CCC(O)CC1)c1ccc(C2CCOCC2)o1 [Example 62, N-(5-chloro-2-(4-hydroxypiperidin-1-yl)phenyl)-5-(tetrahydro-2H-pyran-4-yl)furan-2-carboxamide]",> 30000,24.8,> 30000,1.5,11000,12200
"Cc1ccc(N2CCC(C)(C)CC2)c(NC(=O)c2ccc(C3CCOCC3)o2)c1 [Example 63, N-(2-(4,4-dimethylpiperidin-1-yl)-5-methylphenyl)-5-(tetrahydro-2H-pyran-4-yl)furan-2-carboxamide]",> 30000,> 30,> 30000,25,14200,> 30000
"CC1(C)CCN(c2ccc(C3CC3)cc2NC(=O)c2ccc(C3CCOCC3)o2)CC1 [Example 64, N-(5-cyclopropyl-2-(4,4-dimethylpiperidin-1-yl)phenyl)-5-(tetrahydro-2H-pyran-4-yl)furan-2-carboxamide]",> 30000,> 30,> 30000,5.6,15800,> 30000
"CC1(C)CCN(c2ccc(Cl)cc2NC(=O)c2ccc(C3CCOCC3)o2)CC1 [Example 65, N-(5-chloro-2-(4,4-dimethylpiperidin-1-yl)phenyl)-5-(tetrahydro-2H-pyran-4-yl)furan-2-carboxamide]",> 30000,> 30,> 30000,9.8,14000,> 30000
"Cc1ccc(N2CCC(C)(CO)CC2)c(NC(=O)c2ccc(C3CCOCC3)o2)c1 [Example 66, N-(2-(4-(hydroxymethyl)-4-methylpiperidin-1-yl)-5-methylphenyl)-5-(tetrahydro-2H-pyran-4-yl)furan-2-carboxamide]",> 30000,> 30,> 30000,10,2000,11400
"CC1(CO)CCN(c2ccc(C3CC3)cc2NC(=O)c2ccc(C3CCOCC3)o2)CC1 [Example 67, N-(5-cyclopropyl-2-(4-(hydroxymethyl)-4-methylpiperidin-1-yl)phenyl)-5-(tetrahydro-2H-pyran-4-yl)furan-2-carboxamide]",> 30000,> 30,> 30000,4.1,3300,7900
"CC1(CO)CCN(c2ccc(Cl)cc2NC(=O)c2ccc(C3CCOCC3)o2)CC1 [Example 68, N-(5-chloro-2-(4-(hydroxymethyl)-4-methyl-piperidin-1-yl)phenyl)-5-(tetrahydro-2H-pyran-4-yl)furan-2-carboxamide]",> 30000,16.1,10900,1.2,2800,11400
"Cc1ccc(N2CCC(O)(CC3CC3)CC2)c(NC(=O)c2ccc(C3CCOCC3)o2)c1 [Example 70, N-(2-(4-(cyclopropylmethyl)-4-hydroxypiperidin-1-yl)-5-methylphenyl)-5-(tetrahydro-2H-pyran-4-yl)furan-2-carboxamide]",> 30000,4.7,4400,11,1800,2200
"O=C(Nc1cc(C2CC2)ccc1N1CCC(O)(CC2CC2)CC1)c1ccc(C2CCOCC2)o1 [Example 71, N-(5-cyclopropyl-2-(4-(cyclopropylmethyl)-4-hydroxypiperidin-1-yl)phenyl)-5-(tetrahydro-2H-pyran-4-yl)furan-2-carboxamide]",> 30000,8.79,4190,2.9,5420,2700
